Source: patent publication US20100130526A1, “Methods for Disease Therapy” (priority 2008, published 2010)

What was measured:
Type in all cases: in vivo, human
[1] = tested on: principal components of nuclear import and inflammasome pathways; experiment: Gene expression phenotypes of nuclear import and inflammasome pathways in PBMC of chloroquine-treated malaria patients; conditions: PBMC of malaria patients treated with chloroquine
KPNA1 mRNA = experiment: Microarray analysis of KPNA1 mRNA expression in PBMC of malaria patients before and after chloroquine therapy; conditions: disease-decreased level (3.9-fold), p=0.0015, data set GSE5418
Source text: (§1) (See FIG. 12). […] (See FIG. 12).

KPNA6 mRNA = experiment: Microarray analysis of KPNA6 mRNA expression in PBMC of malaria patients before and after chloroquine therapy; conditions: data set GSE5418
Source text: as §1

NLRP3 mRNA = experiment: Microarray analysis of NLRP3 mRNA expression in PBMC of malaria patients before and after chloroquine therapy; conditions: disease-increased level (2.7-fold), p=0.024, data set GSE5418
Source text: as §1

NLRP1 mRNA = experiment: Microarray analysis of NLRP1 mRNA expression in PBMC of malaria patients before and after chloroquine therapy; conditions: disease-decreased level (1.4-fold), p=0.016, data set GSE5418
Source text: as §1

CCN(CC)CCCC(C)Nc1ccnc2cc(Cl)ccc12 (centres unmarked) [chloroquine]
Effect on aberrant disease-associated gene expression phenotypes (KPNA1, NLRP1, NLRP3) [1]: partial reversal of the aberrant gene expression phenotypes
KPNA1 mRNA expression elevated after chloroquine therapy (KPNA1 mRNA): 66%
KPNA6 mRNA expression change after chloroquine therapy (KPNA6 mRNA): do not manifest statistically significant changes
NLRP3 mRNA expression reduced after chloroquine therapy (NLRP3 mRNA): 57%
NLRP1 mRNA expression elevated after chloroquine therapy (NLRP1 mRNA): 13%
